In brackets after ≈: the same amount, converted by molar mass.
Legend:
[1] = tested on: Blumeria graminis f. sp. hordei (type A6); experiment: Curative leaf-segment test on barley; type: in vivo; settings: barley (HORVX), 2 WAT; for Effect [%]: pustules relative to no carbonate
Method: (§1) Plants tested: barley (HORVX); cultivation of plants: three plants per pot were cultivated in fine Frustorfer soil for three weeks.
The plants were inoculated with fresh conidia of Blumeria graminis f. sp. hordei (type A6). 24-48h after inoculation with mildew, the plants were treated with the following liquid formulation: fungicidal formulation OPUS® SC 125 (BASF SE; comprising epoxiconazole). The effect of a carbonate (numbering according to Table 1 above) was tested by adding the respective carbonate to the liquid formulation prior to treatment of the plants.
10 hours after treatment with fungicidal formulation, beginning from the stalk, 7 cm leaf segments were cut; the most recent leaf and the second most recent leaf of a plant were used. 15 pieces of said 7 cm leaf segments were collected and put onto benzimidazole-agar (0.5% agar, 40 ppm benzimidazole added after treatment by autoclave. The agar plates (10x10cm) were then incubated at 18°C during night time and at 23°C during day time at 60-70% air moisture in an incubator for a certain time.
The determination of the mildew infestation was carried out by mildew pustules per leaf within 5 cm leaf length. WAT (weeks after treatment) were chosen according to constant impairment observed. Table Ex6b: Dosing of agrochemically active compound with and without component (b) in curative leaf-segment test on barley (HORVX) and the infestation of mildew after WAT

[2] = at 20°C; cited from earlier work
[3] = Determination of boiling point of carbonates; type: physicochemical; settings: calculated from boiling point measured at a pressure below 101.3 kPa
Method: (§2) Determination of boiling point: measured at a pressure below 101.3 kPa; the boiling point measured at this pressure below 101.3 kPa were used to calculate the boiling point at 101.3 kPa by using the following tool: http://www.calctool.org/CALC/chem/substance/boiling. Determination of dynamic viscosity: By using Anton Paar viscosimeter SVM 3000/G2, viscosity was measured at 23°C. Said Anton Paar viscosimeter is a rotational viskosimeter and works according the Stabinger measurement principle.

[4] = Determination of dynamic viscosity (Anton Paar viscosimeter SVM 3000/G2); type: physicochemical; settings: dynamic viscosity at 23°C
Method: as §2

[5] = Solubility of carbonates in water (OECD guideline 105, flask method); type: physicochemical; settings: for Solubility of carbonates in water: OECD 105 flask method
From the text: The water solubility of a substance is the saturation mass concentration of the substance in water at a given temperature. Determination according to OECD guideline for testing of chemicals 105, flask method.

[6] = tested on: Blumeria graminis f. sp. hordei (type A6); experiment: Protective leaf-segment test on barley; type: in vivo; settings: barley (HORVX), 2 WAT; for Effect [%]: infestation relative to no carbonate
Method: as §1
The plants were treated with the following SC formulation: fungicidal formulation - 25% by weight azoxystrobin, 16.7% by weight Tamol® NN 2901, 10% by weight propyleneglycol, 48.3% by weight water. The effect of a carbonate (numbering according to Table 1 above) was tested by adding the respective carbonate to the […] formulation prior to treatment of the plants.
10 hours after treatment with fungicidal formulation, beginning from the stalk, 7 cm leaf segments have been cut; the most recent and the second most recent leaf of a plant were used. 15 pieces of said 7 cm leaf segments were collected and put onto benzimidazole-agar (0.5% agar, 40 ppm benzimidazole added after treatment by autoclave).
The leaf segments on the agar plates were inoculated with fresh conidia of Blumeria graminis f. sp. hordei (type A6).
The agar plates (10x10cm) were then incubated at 18°C during night time and 23°C during day time at 60-70% air moisture in an incubator for a certain time.
The determination of the mildew infestation was carried out by determining the surface per leaf within 5 cm leaf length infested with mildew. WAT (weeks after treatment) were chosen according to constant impairment observed.

[7] = epoxiconazole 10 g/ha (OPUS® SC 125), amount of carbonate 0 g/ha
[8] = azoxystrobin 10 g/ha SC formulation plus carbonate No 1 at 50 g/ha
[9] = epoxiconazole 10 g/ha (OPUS® SC 125) plus carbonate No 1 at 50 g/ha
[10] = azoxystrobin 10 g/ha SC formulation, amount of carbonate 0 g/ha

Fc1ccc([C@]2(Cn3cncn3)O[C@H]2c2ccccc2Cl)cc1 (racemic) [pesticide 4, epoxiconazole, reference compound]
Mildew pustules - average value of 15 leaves [1, 7]: 41.3
Effect [%] [1, 7]: 100%
Solubility in H2O (data from literature*) [2]: 8.42 mg/l at 20 °C

CCC(=O)OCC1COC(=O)O1 (stereo not shown) [compound 1]
Boiling point °C at 101.3 kPa [3]: >180 °C
Viscosity mPa.s at 23°C [4]: 32 mPa.s
Solubility of carbonates in water [5]: 54 g carbonate per l water
% leaf surface infested with mildew - average value of 15 leaves [6, 8]: 28%
Effect [%] [6, 8]: 72.35%
Mildew pustules - average value of 15 leaves [1, 9]: 34.7
Effect [%] [1, 9]: 84%

CCCC1COC(=O)O1 (stereo not shown) [compound 2]
Boiling point °C at 101.3 kPa [3]: >180 °C
Viscosity mPa.s at 23°C [4]: 4.2 mPa.s
Solubility of carbonates in water [5]: 21 g carbonate per l water

CC(=O)OCC1COC(=O)O1 (stereo not shown) [compound 3]
Boiling point °C at 101.3 kPa [3]: >180 °C
Viscosity mPa.s at 23°C [4]: 59.1 mPa.s
Solubility of carbonates in water [5]: 72 g carbonate per l water

CO/C=C(/C(=O)OC)c1ccccc1Oc1cc(Oc2ccccc2C#N)ncn1 [pesticide 2, azoxystrobin, reference compound]
% leaf surface infested with mildew - average value of 15 leaves [6, 10]: 38.7%
Effect [%] [6, 10]: 100%
Solubility in H2O (data from literature*) [2]: 6.7 mg/l at 20 °C

COC(=O)N(OC)c1ccccc1COc1ccn(-c2ccc(Cl)cc2)n1 [pesticide 3, pyraclostrobin]
Solubility in H2O (data from literature*) [2]: 1.9 mg/l at 20 °C

CC(C)(C)C(O)(CCc1ccc(Cl)cc1)Cn1cncn1 (stereo not shown) [pesticide 5, tebuconazole]
Solubility in H2O (data from literature*) [2]: 29 mg/l at 20 °C

CC(O)(Cn1cncn1)c1ccc(Oc2ccc(Cl)cc2)cc1C(F)(F)F (stereo not shown) [pesticide 7, mefentrifluconazole]
Solubility in H2O (data from literature*) [2]: 0.81 mg/l at 20 °C

Cn1cc(C(=O)Nc2ccccc2-c2cc(F)c(F)c(F)c2)c(C(F)F)n1 [pesticide 8, fluxapyroxad]
Solubility in H2O (data from literature*) [2]: 3.88 mg/l at 20 °C

CC(Cc1ccc(C(C)(C)C)cc1)CN1C[C@@H](C)O[C@@H](C)C1 (stereo partly shown) [pesticide 9, fenpropimorph]
Solubility in H2O (data from literature*) [2]: 4.3mg/l at 20 °C

CC1COC(=O)O1 (stereo not shown) [propylene carbonate, reference compound]
water solubility ([5]; comparison value for propylene carbonate, source not stated): 175 mg/mL (≈ 1710 mM)
